Measured values from ChEMBL document CHEMBL5505957 (Eur J Med Chem, 2024).

System: Influenza A virus
Assay: microbe, parasite or virus in culture
Conditions: A/Puerto Rico/8/34, MDCK, 48 h

Cc1[nH]c(=O)[nH]c(=O)c1CCCc1cn(C2OC(CO)C(O)C2O)nn1 (stereo unspecified)
IC50: 68 µM
